Experimental data as given in PMC10887214 (Biomedicines, 2024).

Legend:
C57BL/6J mice [1] = test: Home cage activity test; format: in vivo, mouse; details: i.p., OS 2 mg/kg, WIN 0.5 mg/kg, 21 h
Experimental: (§1) Animal housing. Forty-eight Male C57BL/6J mice were purchased from Janvier Labs (Le Genest-Saint-Isle, France) and were time-specifically housed in a 12 h light-dark cycle (lights on at 7 am), with ad libitum water and food in conditioned rooms (22 °C, humidity ~60%).
(§2) Behavior assays. All mice were subjected to a behavioral test battery that consisted of several general performance tasks of locomotor activity, exploratory and anxiety-like behavior, and learning and memory. Mice were divided into four groups: Vehicle, OS (2 mg/kg), WIN55 (0.5 mg/kg), or OS + WIN. Each group consisted of 7–14 mice that received two i.p injections before each test, with a 10 min interval between each injection. Veh + Veh were injected with PBS. Veh + WIN were injected with PBS and WIN55. Veh + OS were injected with PBS and OS. OS + WIN were injected with OS and WIN55. PBS was used as vehicle as it was used for dilution of drugs. Tests were performed in the order described below after 10 min of the last injection, with a 24 h interval between each test.
Cage activity assessment: At P60, animals were moved to the cage activity room for one hour before injections for habituation.. The cage activity assessment consists of placing the mice in a transparent box which is placed between three infrared sensors (two on the cage’s side and one in its front) that count how many times the mice cross the infrared beams. The times of beams crossed in each 30 min were counted over a period of 24 h and used as a locomotor activity measurement. In addition, we also compared the total number of beams crossed during the day and night period. For this test, we used Veh (n = 10), OS (n = 9), WIN (n = 11), OS + WIN (n = 8).

C57BL/6J mice [2] = test: Open Field (OF); format: in vivo, mouse; details: i.p., WIN 0.5 mg/kg
Experimental: as §1, §2
Open Field (OF): One day after the cage activity test, mice were tested in the OF paradigm. The OF aimed to test the OS, WIN, and OS + WIN effect on animal locomotion and exploratory behavior. Animals were placed in the test room one hour before starting the test. For the OF, animals were placed in a plexiglass box (60 × 60 × 60 cm) divided into three zones (center, periphery, and corners) for 10 min and left free to explore. Total distance and time in zones were counted. Here, more time in the center meant an anxiolytic effect, and a higher distance walking meant an increase in locomotor activity. For this test, we used Veh (n = 8), OS (n = 10), WIN (n = 7), OS + WIN (n = 8).

C57BL/6J mice [3] = test: Morris Water Maze (MWM); format: in vivo, mouse; details: i.p., WIN 0.5 mg/kg
Experimental: as §1, §2
Morris Water Maze (MWM): MWM [32] was used to assess the effects of OS, WIN, and OS + WIN in memory one day after the EPM test. MWM is a gold standard test to assess learning and memory consisting of 10 days of training and two probe trials in a pool with water at a temperature of 26 °C, with one submersed platform invisible to mice. Each mouse could try to find the platform for 100 s, four times per day, with an inter-trial interval of 15–30 min. In each trial, animals were released randomly from each of the four starting positions. This protocol of training was repeated for ten days (training sessions). The platform was removed on the 6th and 11th days, and the animals were left free to swim for 100 s (probe trials). Right after the first probe trial (day 6), animals were trained again with the platform at the same place. During the training sessions, the mean latency to find the platform for the session was calculated for each animal as the average of the four trials of the day. During the probe trials, the pool was divided into four equal virtual quadrants, and the time spent in the target quadrant (TQ) (i.e., the quadrant where the platform was located during the training sessions) was assessed as a measure of memory retention. For this test, we used Veh (n = 9), OS (n = 8), WIN (n = 8), OS + WIN (n = 14).

chimeric CB1/2 receptor = test: Two-electrode voltage-clamp, chimeric CB1/2-GIRK1/GIRK2-RGS4 coupling system expressed in oocytes; details: WIN55,212-2 concentration–response

## Cc1c(C(=O)c2cccc3ccccc23)c2cccc3c2n1[C@H](CN1CCOCC1)CO3 [WIN55,212-2, reference compound]
C57BL/6J mice [1]
  Cage activity (beam crossings) 2 h after the beginning of night phase: did not change the activity
C57BL/6J mice [2]; OS 2 mg/kg, 10 min test
  Total distance walked in open field (locomotion): neither OS nor WIN affected locomotion
C57BL/6J mice [2]
  Time spent in the periphery of open field compared to the control: spent less time in the periphery
C57BL/6J mice [3]; OS 2 mg/kg, days 3, 4, 5, 6 and 8
  Time to find the platform in training sessions vs control: performed significantly worse than the control
C57BL/6J mice [3]
  Time spent in the target quadrant (TQ), first probe trial: ~ 25%
Chimeric CB1/2 receptor
  Receptor activation: activated by WIN55,212-2 in a concentration-dependent manner
